Measurements: US11944604B1, “Nanoformulation of spriooxindole and methods for treating hepatocellular carcinoma” (KING SAUD UNIVERSITY, priority 2023, dated 2024)
Where two headings read alike, the source gives them in different places.

What was measured:
[1] = test system: colon cancer cells; details: cited from earlier work
[2] = test system: Male Balb/c mice; assay: Safety / tolerated dose study of compound 4d in healthy mice (blood count, blood chemistry, histopathology); assay type: in vivo; details: for Creatinine / GOT / GPT / Hb / Leukocytes / Platelets: mean ± SD
Description: (§1) An in vivo study was carried out in Male Balb/c mice, each weighing 15-25 g. All mice were purchased from Medical Experimental Research Center (MERC), Mansoura University, Egypt. Mice were acclimatized for one week in the new animal care facility, at the Zoology Department, Mansoura University, Egypt, under specific pathogen-free (SPF) conditions, and provided with conventional food and drinking water before the study. All animal experiments were carried out following the guidelines of the faculty of Science, Mansoura University, Egypt.
The lethal dose of compound 4d was evaluated according to standard Dose-Probing Tests. Mice were divided into groups of three for evaluating the LD50. Each group received either a different concentration of compound 4d (ranging from 10 ng/Kg to 200 mg/Kg), in corn oil, or the solvent 10% DMSO in corn oil, by intraperitoneal (IP) injection.
The weight and physical symptoms of the mice were monitored for 14 days. After that, all groups were sacrificed, and the liver, kidney, heart, and spleen were collected for histological evaluation of the toxicity of compound 4d. Blood was collected from each mouse for evaluation of the effect of compound 4d on liver and kidney function.
(§2) The blood was centrifuged to collect serum or plasma for biochemical analysis. The blood chemistry was evaluated to detect the level of serum alanine aminotransferase (ALT), serum aspartate aminotransferase (liver function test), and serum creatinine (kidney function test). Complete blood count analysis was carried out to detect the effect of compound 4d treatment on blood platelet count, because it has been reported that p53-MDM2 inhibitors cause high grade thrombocytopenia (i.e., decreased numbers of platelets).
(§3) The formalin-fixed liver specimens were embedded in paraffin, and sections were taken and prepared for hematoxylin and Eosin (H&E) staining. The slides were examined for hepatic architecture, degenerative changes, inflammatory changes, hepatocytes necrosis, mitosis, dysplastic changes and malignant transformation. 4 μm thick sections were prepared on coated slides.
In order to evaluate the tolerated dose of compound 4d, mice were intraperitoneally injected with different doses, and physical symptoms were evaluated daily for 14 days. The maximum dose used was 200 mg/kg, because of the solubility limitation in DMSO. DMSO was adjusted to the tolerated dose 10% in corn oil.

[3] = test system: HCT-116; assay: Anticancer potency and ligand efficiency scores, HCT-116; assay type: cell-based; details: Homo sapiens
Source text: (§4) LE is used to measure the efficiency of compounds and determine binding affinity (in terms of binding energy or pIC50) in relation to the number of heavy atoms in a molecule. This provides a way to compare the affinity of molecules corrected for their size.
(§5) LE represents the ratio of the affinity of a ligand divided by the number of heavy (non-hydrogen) atoms in the molecule (LE=ΔG/[number of heavy atoms. LE can be calculated according to the following equation: LE=(plC50×1.37)/NHA • where: • IC50=half-maximal inhibitory concentration (in term of molar concentration). • NHA=non-hydrogen atom. The recommended LE value for lead-likeness should be in the range of 0.3. The acceptable LE value for drug-likeness should be higher than 0.3.
(§6) LLE can be calculated as follows: LLE=pIC50−C log P

[4] = test system: PC-3; assay: Anticancer potency and ligand efficiency scores, PC-3; assay type: cell-based; details: Homo sapiens
Source text: as §4, §5, §6

[5] = test system: Ki-67; assay: Immunohistochemistry of Ki-67 in hepatocytes of CCl4-treated mice; assay type: in vivo; details: low (daily dose for 14 days) or high dose (single dose)
Description: (§7) Twenty five mice were treated with carbon tetrachloride (CCl4, from LOBA Chemie Pvt Ltd, Mumbai, India, 1:5 in corn oil) twice weekly via IP injection for 24 weeks. After that period of time, mice were distributed evenly into 5 groups of 5 mice. Group 1 was treated with the solvent 10% DMSO; group 2 was treated with a low dose of compound 4d (50 mg/kg/daily) for 14 days; group 3 was treated with a high dose of compound 4d (200 mg/kg) for 6 hours; group 4 was treated with a high dose of compound 4d (200 mg/kg) for 24 hours; and group 5 was treated with a high dose of compound 4d (200 mg/kg) for 48 hours.
The sections were de-paraffinized in xylene, then rehydrated. Endogenous tissue peroxidase was blocked by incubating the slides for 5 minutes in 0.3% hydrogen peroxide. Antigen retrieval was done by heating the sections in citrate buffer, at pH 6.0, in a microwave. […]
The statistical analysis was done using the software SPSS 19 for Microsoft Windows (SPSS Inc, Chicago, Illinois). A quantitative analysis of the number of hepatocytes with positive nuclear Ki-67 staining were tested using a one-way analysis of variance (ANOVA), with Duncan's multiple comparisons of the means to compare difference between means.
The level of proliferative Ki-67 marker was evaluated using immunohistochemistry. […]

[6] = test system: caspase 3; assay: Immunohistochemistry of caspase 3 in liver sections of CCl4-treated mice; assay type: in vivo; details: low dose daily for 14 days or high dose for 48 hours
Description: as §7
(§8) The sections were de-paraffinized in xylene, then rehydrated. Endogenous tissue peroxidase was blocked by incubating the slides for 5 minutes in 0.3% hydrogen peroxide. Antigen retrieval was done by heating the sections in citrate buffer, at pH 6.0, in a microwave. Then, the sections were incubated with monoclonal mouse p53 (clone DO-7, Dako, USA), rabbit polyclonal caspase 3 antibody (CPP32) Ab-4 (ThermoScientific), or with monoclonal mouse Ki-67 antigen (clone MIB-1, Dako, USA).
(§9) The slides were counterstained with hematoxylin and then dehydrated in alcohol and cleared xylene. The immunohistochemical and pathological changes were examined by light microscopy (binocular, Olympus). Images were taken using a digital camera (Canon, 5 mega pixels, at 3.2× optical zoom). […]

[7] = test system: HepG2; assay: Anticancer potency and ligand efficiency scores, HepG2; assay type: cell-based; details: Homo sapiens
Source text: as §4, §5, §6

[8] = Lipophilicity (log K as surrogate for log P); assay type: physicochemical
Description: An LLE value≥3 for a lead compound is acceptable, and for a drug candidate LLE value ≥5 is recommended. To get more accurate results, log P was calculated practically, and Log K was measured as indicator and surrogate for log p.

[9] = test system: colon, liver and prostate cancer; details: anticancer activity against colon; cited from earlier work
[10] = test system: p53; assay: Immunohistochemistry of p53 in liver sections of CCl4-treated mice; assay type: in vivo
Description: as §7, §8, §9

[11] = test system: CCl4-induced liver cancer; assay: CCl4-induced liver cancer model: serum liver/kidney markers and H&E histopathology; assay type: in vivo, mice; design: GPT (ALT) / Creatinine / GOT (AST): unit not given here; details: for Creatinine / GOT (AST) / GPT (ALT): serum, mean ± SD; for mitotic activity of liver cells (H&E): CCl4-treated mice
Description: as §1, §7
At the end of each treatment, all mice were sacrificed, and blood and liver were collected for evaluation. The liver samples were washed in ice cold 1× phosphate buffered saline (PBS), and fixed in 10% buffered formalin till examination.
as §2, §3
An in vivo model was carried out to test the efficacy of compound 4d in treatment of liver cancer by applying two regimens of compound 4d: a single dose of 200 mg/kg and the treated mice were sacrificed after 6, 24 or 48 hours; or a daily dose of 50 mg/kg for 14 days. Liver cancer was induced chemically by CCl4 (1:5 dilution in corn oil, twice per week). […] The liver architecture was disturbed and there were cirrhotic nodules with bridging fibrosis (FIG. 3A).

[12] = healthy mice, IP, 50 mg/kg/14 d
[13] = healthy mice, IP, 200 mg/kg/24 hrs
[14] = healthy mice, IP, 200 mg/kg/48 hrs

For `O=C(/C=C/c1ccc(Cl)cc1Cl)[C@H]1[C@H](c2ccc(Cl)cc2Cl)[C@H]2CSCN2[C@]12C(=O)Nc1ccccc12` [Compound 4d, (3R,6′S,7′R,7a′S)-7′-(2,4-dichlorophenyl)-6′-((E)-3-(2,4-dichlorophenyl)acryloyl)-1′,6′,7′,7a′-tetrahydro-3′H-spiro[indoline-3,5′-pyrrolo[1,2-c]thiazol]-2-one], the “apoptosis (Bcl-2 inhibition, Bax activation)” value [1] is given as “induction of apoptosis”, the “colony formation and wound healing” value ([1]; treated colon cancer cells) is given as “inhibited colony formation, and wound healing” and the p21 gene expression ([1]; treated colon cancer cells) is given as “overexpression of cell cycle inhibitor p21 gene”. For the same compound, the p53 activation ([1]; treated colon cancer cells) was “activation of p53”, the “change in the behavior, feeding or drinking of the mice” value ([2]; IP, doses up to 200 mg/kg, observed daily for 14 days) was “did not cause any change” and the Creatinine [2, 12] was 0.49 ± 0.21. The GOT [2, 12] was 281.0 ± 231.9, the GPT [2, 12] was 486.6 ± 339.9 and the Hb [2, 12] was 10.16 ± 1.1. For the same compound, the Leukocytes [2, 12] was 12.5 ± 6.9, the Platelets [2, 12] was 433.0 ± 304.6 and the Creatinine [2, 13] was 0.67 ± 0.24. It also gave a GOT [2, 13] of 129.6 ± 56.5, a GPT [2, 13] of 498.0 ± 228.8 and a Hb [2, 13] of 10.1 ± 1.43. The Leukocytes [2, 13] was 10.6 ± 6.9, the Platelets [2, 13] was 519 ± 302.9 and the Creatinine [2, 14] was 0.692 ± 0.567. For the same compound, the GOT [2, 14] was 145.7 ± 198.9, the GPT [2, 14] was 368.0 ± 208.1 and the Hb [2, 14] was 10.4 ± 1.78. The Leukocytes [2, 14] was 13.6 ± 6.4, the Platelets [2, 14] was 407.0 ± 281.6 and the “pathological alteration in kidney, heart or spleen” value ([2]; healthy mice, histopathology) was “did not cause any pathological alteration”. For the same compound, the “platelet count (complete blood count)” value ([2]; healthy mice, in words) was “no aberrant or significant change”, the “liver architecture, hematoxylin and eosin staining” value ([2]; healthy mice, treatment for 14 days) was “normal liver architecture without any degenerative changes” and the IC50 ([3]; read-out: HCT-116 (unnamed value under the cell line head)) was 2000 nM. For the same compound, the IC50 ([3]; read-out: pIC50 (converted)) was 2040 nM, the IC50 ([4]; read-out: PC-3 (unnamed value under the cell line head)) was 1800 nM and the IC50 ([4]; read-out: pIC50 (converted)) was 1820 nM. The “number of Ki-67 nuclear stained hepatocytes” value [5] was “significantly increased”, the “level of caspase 3 in liver sections” value [6] was “induced the activation of caspase 3” and the IC50 ([7]; read-out: HepG2 (unnamed value under the cell line head)) was 850 nM. The IC50 ([7]; read-out: IC50 (converted)) was 851 nM, the “log K” value [8] was 1.19 and the selectivity index [9] was “greater than 2”. For the same compound, the “level of p53 in liver sections” value ([10]; daily dose of 50 mg/kg for 14 days, versus mice only treated with CCl4) was “higher levels of detected p53”, the “activation of p53 in liver sections” value ([10]; single dose of 200 mg/kg for 6, 24 or 48 hours) was “time-dependent activation of p53” and the Creatinine ([11]; CCl4 + 50 mg/kg/14 d) was 0.4120 ± 0.2. For the same compound, the “GOT (AST)” value ([11]; CCl4 + 50 mg/kg/14 d) was 449.20 ± 109.2, the “GPT (ALT)” value ([11]; CCl4 + 50 mg/kg/14 d) was 2028.6 ± 168 and the Creatinine ([11]; CCl4 + 200 mg/kg/6 hrs) was 0.4560 ± 0.1823. The “GOT (AST)” value ([11]; CCl4 + 200 mg/kg/6 hrs) was 3419.00 ± 130.5, the “GPT (ALT)” value ([11]; CCl4 + 200 mg/kg/6 hrs) was 3430.4 ± 137.48 and the Creatinine ([11]; CCl4 + 200 mg/kg/24 hrs) was 0.4860 ± 0.17. The “GOT (AST)” value ([11]; CCl4 + 200 mg/kg/24 hrs) was 1161.00 ± 108.5, the “GPT (ALT)” value ([11]; CCl4 + 200 mg/kg/24 hrs) was 2209.0 ± 132.8 and the Creatinine ([11]; CCl4 + 200 mg/kg/48 hrs) was 0.4660 ± 0.16. For the same compound, the “GOT (AST)” value ([11]; CCl4 + 200 mg/kg/48 hrs) was 208.40 ± 9.32, the “GPT (ALT)” value ([11]; CCl4 + 200 mg/kg/48 hrs) was 961.6 ± 15.96 and the “mitotic activity of liver cells (H&E)” value ([11]; daily dose of 50 mg/kg for 14 days) was “no mitotic activity”. The “mitotic activity of liver cells (H&E)” value ([11]; single dose of 200 mg/kg, after 6 hours) was 1 /10 H.P.F, the “mitotic activity of liver cells (H&E)” value ([11]; single dose of 200 mg/kg, longer incubation (24 hours)) was 1 /10 H.P.F and the “mitotic activity of liver cells (H&E)” value ([11]; single dose of 200 mg/kg, two days (48 hours)) was 2 /10 H.P.F.
